Measurements reported in US20250222124A1, “PROTEIN CONJUGATES WITH MULTIPLE PAYLOADS AND METHODS FOR MAKING THE SAME” (GLYCO-THERAPY BIOTECHNOLOGY CO., LTD., priority 2022, published 2025).

Test system: HpFT-2 (Helicobacter pylori α1,3 fucosyltrasferase)
Assay: Conversion efficiency of α1,3 fucosyltrasferase towards GDP-fucose derivatives with different jointer on the antibodies (LC-MS)
Format: biochemical
Settings: substrate 1 mM, HpFT-2 0.5 mg/mL
Method: Trastuzumab-(GalNAzβ1,4)GlcNAc (2 mg/mL) was incubated with GDP-FAzP4Biotin (1 mM) or GDP-FAmP4Biotin (1 mM) and HpFT-2 (0.5 mg/mL) in 50 mM Tris-HCl buffer (pH 7.5) with 5 mM MgCl2 at 30° C. for 2 hours. […] The reaction mixtures were then quenched by adding LacNAc (final concentration 10 mM) and purified with protein A resin and analyzed by LC-MS respectively.

[1] = antibody Trastuzumab-(Fucα1,6)(Galβ1,4)GlcNAc 2 mg/mL, reaction time 10 min, average MAR/2*100%
[2] = antibody Trastuzumab-(GalNAzβ1,4)GlcNAc 2 mg/mL, reaction time 2 h, average MAR/2*100%
[3] = antibody Trastuzumab-(Galβ1,4)GlcNAc 2 mg/mL, reaction time 10 min, average MAR/2*100%

Compound	% of conversion [1]	% of conversion [2]	% of conversion [3]	% of conversion (antibody Trastuzumab-G2F 2 mg/mL, reaction time 2 h, average MAR/4*100%)
Nc1nc2c(ncn2[C@@H]2O[C@H](COP(=O)(O)OP(=O)(O)O[C@H]3OC(CNC(=O)CCOCCOCCOCCOCCNC(=O)CCCC[C@@H]4SC[C@@H]5NC(=O)N[C@@H]54)[C@@H](O)C(O)C3O)C(O)C2O)c(=O)[nH]1 (stereo partly shown) [GDP-FAmP4Biotin]	42 ± 5.3%	77 ± 5.0%	83 ± 1.2%	
Nc1nc2c(ncn2[C@@H]2O[C@H](COP(=O)(O)OP(=O)(O)O[C@H]3OC(Cn4cc(COCCOCCOCCOCCNC(=O)CCCC[C@@H]5SC[C@@H]6NC(=O)N[C@@H]65)nn4)[C@@H](O)[C@H](O)C3O)C(O)[C@@H]2O)c(=O)[nH]1 (stereo partly shown) [GDP-FAzP4Biotin]	30 ± 4.6%	13 ± 4.7%	60 ± 0.6%	9 ± 1.2%
